Tests used:
hNPFF1 [1] = biological target: T1, hNPFF1 (Homo sapiens, UniProt Q9GZQ6); assay: Binding affinity at cloned recombinant human NPFF1 receptor
T1 construct: expressed in transfected cells

rNPFF2 [2] = biological target: T2, rNPFF2 (Rattus norvegicus, UniProt Q9EQD2); assay: Functional assay (agonist potency, intrinsic activity) at cloned rat NPFF2 receptor; type: cell-based; conditions: for rNPFF2 IA (intrinsic activity): percent of maximum response elicited by neuropeptide FF, rat NPFF2; for EC50: recombinant rat NPFF2
T2 construct: expressed in transfected cells
Experimental: (§1) Intrinsic activity of a compound is measured as the percent of maximum response.

rNPFF1 [3] = biological target: T3, rNPFF1 (Rattus norvegicus, UniProt Q9EP86); assay: Functional assay (agonist potency, intrinsic activity) at cloned rat NPFF1 receptor; type: cell-based; conditions: for rNPFF1 IA (intrinsic activity): percent of maximum response elicited by neuropeptide FF, rat NPFF1; for EC50: recombinant rat NPFF1
T3 construct: expressed in transfected cells
Experimental: as §1

rNPFF1 [4] = biological target: T3, rNPFF1; assay: Binding affinity at cloned recombinant rat NPFF1 receptor
rNPFF2 [5] = biological target: T2, rNPFF2; assay: Binding affinity at cloned recombinant rat NPFF2 receptor
hNPFF2 [6] = biological target: T4, hNPFF2 (Homo sapiens, UniProt Q9Y5X5); assay: Binding affinity at cloned recombinant human NPFF2 receptor
T4 construct: expressed in transfected cells

hNPFF2 [7] = biological target: T4, hNPFF2; assay: Functional assay (agonist potency, intrinsic activity) at cloned human NPFF2 receptor; type: cell-based; conditions: for hNPFF2 IA (intrinsic activity): percent of maximum response elicited by neuropeptide FF, human NPFF2; for EC50: recombinant human NPFF2
Experimental: as §1

hNPFF1 [8] = biological target: T1, hNPFF1; assay: Functional assay (agonist potency, intrinsic activity) at cloned human NPFF1 receptor; type: cell-based; conditions: for hNPFF1 IA (intrinsic activity): percent of maximum response elicited by neuropeptide FF, human NPFF1; for EC50: recombinant human NPFF1
Experimental: as §1

[9] = rat cloned NPFF receptors, based on IA and Ki

T1 sequence (Q9GZQ6 whole entry): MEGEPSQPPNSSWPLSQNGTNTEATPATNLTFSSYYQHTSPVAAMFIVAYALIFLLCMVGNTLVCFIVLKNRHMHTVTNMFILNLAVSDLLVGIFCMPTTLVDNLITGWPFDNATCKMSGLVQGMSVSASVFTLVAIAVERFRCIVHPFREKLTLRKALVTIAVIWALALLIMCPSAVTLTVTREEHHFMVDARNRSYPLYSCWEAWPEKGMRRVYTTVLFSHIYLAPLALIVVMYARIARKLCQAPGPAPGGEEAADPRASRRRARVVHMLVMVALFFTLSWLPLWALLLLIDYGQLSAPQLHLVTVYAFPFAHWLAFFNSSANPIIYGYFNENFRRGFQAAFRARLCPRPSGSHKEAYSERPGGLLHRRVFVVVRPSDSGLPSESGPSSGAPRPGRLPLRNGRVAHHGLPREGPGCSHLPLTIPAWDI
T2 sequence (Q9EQD2 whole entry): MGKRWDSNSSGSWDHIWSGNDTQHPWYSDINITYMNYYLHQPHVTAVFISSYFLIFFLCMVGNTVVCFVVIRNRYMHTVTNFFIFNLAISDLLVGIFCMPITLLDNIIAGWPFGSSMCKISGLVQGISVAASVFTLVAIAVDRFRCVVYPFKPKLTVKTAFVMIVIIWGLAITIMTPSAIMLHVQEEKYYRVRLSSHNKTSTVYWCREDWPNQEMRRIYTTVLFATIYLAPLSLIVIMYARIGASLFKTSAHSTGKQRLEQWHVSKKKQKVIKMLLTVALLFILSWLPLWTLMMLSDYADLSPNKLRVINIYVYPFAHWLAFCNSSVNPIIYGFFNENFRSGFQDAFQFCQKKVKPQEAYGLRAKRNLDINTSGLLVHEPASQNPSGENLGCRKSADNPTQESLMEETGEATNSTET
T3 sequence (Q9EP86 whole entry): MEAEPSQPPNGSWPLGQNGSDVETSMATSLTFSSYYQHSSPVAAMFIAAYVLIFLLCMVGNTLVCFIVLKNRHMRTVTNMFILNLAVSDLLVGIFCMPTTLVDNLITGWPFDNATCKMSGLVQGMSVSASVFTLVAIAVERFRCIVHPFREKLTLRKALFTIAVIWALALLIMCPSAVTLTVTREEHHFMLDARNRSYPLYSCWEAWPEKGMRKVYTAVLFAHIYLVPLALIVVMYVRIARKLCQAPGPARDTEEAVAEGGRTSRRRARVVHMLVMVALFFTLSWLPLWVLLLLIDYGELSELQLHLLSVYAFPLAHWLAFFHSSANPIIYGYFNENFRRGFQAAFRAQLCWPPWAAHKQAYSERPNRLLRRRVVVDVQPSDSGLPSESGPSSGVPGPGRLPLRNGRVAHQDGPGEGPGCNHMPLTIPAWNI
T4 sequence (Q9Y5X5 103-522): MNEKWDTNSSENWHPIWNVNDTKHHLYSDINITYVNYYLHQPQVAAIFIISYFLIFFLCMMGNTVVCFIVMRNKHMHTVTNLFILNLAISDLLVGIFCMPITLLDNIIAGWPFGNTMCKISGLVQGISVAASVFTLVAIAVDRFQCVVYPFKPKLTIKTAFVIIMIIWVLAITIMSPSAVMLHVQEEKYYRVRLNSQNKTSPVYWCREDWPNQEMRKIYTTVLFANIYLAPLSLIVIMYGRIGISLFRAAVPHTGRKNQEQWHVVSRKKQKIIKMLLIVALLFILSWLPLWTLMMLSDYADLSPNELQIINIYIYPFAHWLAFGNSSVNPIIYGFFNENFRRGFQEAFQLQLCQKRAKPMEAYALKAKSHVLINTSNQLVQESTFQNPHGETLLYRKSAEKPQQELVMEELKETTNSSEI

| Structure (SMILES) | Ki (hNPFF1 [1]) | rNPFF2 IA (intrinsic activity) (rNPFF2 [2]) | EC50 (rNPFF2 [2]) | rNPFF1 IA (intrinsic activity) (rNPFF1 [3]) | EC50 (rNPFF1 [3]) | Ki (rNPFF1 [4]) | Ki (rNPFF2 [5]) | Ki (hNPFF2 [6]) | hNPFF2 IA (intrinsic activity) (hNPFF2 [7]) | EC50 (hNPFF2 [7]) | hNPFF1 IA (intrinsic activity) (hNPFF1 [8]) | EC50 (hNPFF1 [8]) | classification as agonist or antagonist at NPFF2 (rNPFF2 [2]; [9]) | classification as agonist or antagonist at NPFF1 (rNPFF1 [3]; [9]) |
| --- | --- | --- | --- | --- | --- | --- | --- | --- | --- | --- | --- | --- | --- | --- |
| Cc1nc(NC(=N)N)nc2ccccc12 [Compound 1001, N-(4-methyl-2-quinazolinyl)guanidine] | 240 nM | 16% NPFF | 3080 nM | Inactive | > 10000 nM | 202 nM | > 10000 nM | 2040 nM |  |  |  |  |  |  |
| Cc1nc(NC(=N)N)nc2ccc3ccccc3c12 [Compound 1007, N-(1-methylbenzo[f]quinazolin-3-yl)guanidine] | 53 nM | 66% NPFF | 1300 nM | Inactive | > 10000 nM | 146 nM | 699 nM | 260 nM |  |  |  |  |  |  |
| Cc1nc(NC(=N)N)nc2cc(-c3ccccc3)ccc12 [Compound 1023, N-(4-methyl-7-phenyl-2-quinazolinyl)guanidine] | 228 nM | 35% NPFF | 3160 nM | Inactive | > 10000 nM | 4 nM | 1020 nM | 2920 nM | 43% NPFF | 4110 nM | Inactive | > 10000 nM |  |  |
| CCCCCc1ccc2nc(NC(=N)N)nc(C)c2c1 [Compound 2001, N-(4-methyl-6-pentyl-2-quinazolinyl)guanidine] | 50 nM | 103% NPFF | 97 nM | 71% NPFF | 242 nM | 8 nM | 221 nM | 376 nM | 84% NPFF | 625 nM | Inactive |  |  |  |
| Cc1nc(NC(=N)N)nc2ccc(Cc3ccccc3)cc12 [Compound 2003, N-(6-benzyl-4-methyl-2-quinazolinyl)guanidine] |  | 89% NPFF | 49 nM | 56% NPFF | 171 nM | 371 nM | 195 nM |  |  |  |  |  |  |  |
| CCCCc1ccc2nc(NC(=N)N)nc(C)c2c1 [Compound 2004, N-(6-butyl-4-methyl-2-quinazolinyl)guanidine] |  | 101% NPFF | 124 nM | 40% NPFF | 194 nM | 392 nM | 262 nM |  |  |  |  |  |  |  |
| CCCCCCc1ccc2nc(NC(=N)N)nc(C)c2c1 [Compound 2005, N-(6-hexyl-4-methyl-2-quinazolinyl)guanidine] |  | 81% NPFF | 105 nM | 56% NPFF | 137 nM | 88 nM | 268 nM |  |  |  |  |  |  |  |
| CCCCCCCc1ccc2nc(NC(=N)N)nc(C)c2c1 [Compound 2006, N-(6-heptyl-4-methyl-2-quinazolinyl)guanidine] |  | 47% NPFF | 1950 nM | 38% NPFF | 886 nM | 788 nM | 3670 nM |  |  |  |  |  |  |  |
| Cc1ccc2c(C)nc(NC(=N)N)nc2c1 [Compound 3001, N-(4,7-dimethyl-2-quinazolinyl)guanidine] | 46 nM |  |  |  |  | 50 nM | 1220 nM | 1720 nM | Inactive | > 10000 nM | Inactive | > 10000 nM | antagonists | antagonists |
| Cc1ccc2nc(NC(=N)N)cc(C)c2c1 [Compound 4001, N-(4,6-dimethyl-2-quinolinyl)guanidine] | 21 nM | 68% NPFF | 404 nM | Inactive | > 10000 nM | 30 nM | 556 nM | 150 nM |  |  |  |  |  |  |
| CCc1ccc2nc(NC(=N)N)cc(C)c2c1 [Compound 4002, N-(6-ethyl-4-methyl-2-quinolinyl)guanidine] | 50 nM | 84% NPFF | 125 nM | Inactive | > 10000 nM | 11 nM | 308 nM | 232 nM | 69% NPFF | 314 nM | Inactive | > 10000 nM |  |  |
| Cc1cc(NC(=N)N)nc2ccc(-c3ccccc3)cc12 [Compound 4003, N-(4-methyl-6-phenyl-2-quinolinyl)guanidine] | 207 nM | 26% NPFF | 3160 nM | Inactive | > 10000 nM | 176 nM | 1250 nM | 2120 nM |  |  |  |  |  |  |
| COc1ccc2nc(NC(=N)N)cc(C)c2c1 [Compound 4004, N-(6-methoxy-4-methyl-2-quinolinyl)guanidine] | 113 nM | 65% NPFF | 1530 nM | Inactive | > 10000 nM | 153 nM | 2580 nM | 1210 nM |  |  |  |  |  |  |
| Cc1cc(NC(=N)N)nc2cc(F)ccc12 [Compound 4007, N-(7-fluoro-4-methyl-2-quinolinyl)guanidine] |  | 17% NPFF | 2640 nM | Inactive | > 10000 nM | 44 nM | 619 nM |  |  |  |  |  |  |  |
| Cc1cc(C)c2c(C)cc(NC(=N)N)nc2c1 [Compound 4008, N-(4,5,7-trimethyl-2-quinolinyl)guanidine] | 82 nM | 65% NPFF | 411 nM | Inactive | > 10000 nM | 64 nM | 882 nM | 514 nM |  |  |  |  |  |  |
| Cc1cc(NC(=N)N)nc2ccc3ccccc3c12 [Compound 4009, N-(1-methylbenzo[f]quinolin-3-yl)guanidine] | 144 nM | 70% NPFF | 3160 nM | Inactive | > 10000 nM | 153 nM | 871 nM | 826 nM |  |  |  |  |  |  |
| CCCCc1ccc2nc(NC(=N)N)cc(C)c2c1 [Compound 5001, N-(6-butyl-4-methyl-2-quinolinyl)guanidine] |  | 82% NPFF | 69 nM | 28% NPFF | 123 nM | 24 nM | 115 nM |  |  |  |  |  |  |  |
| Cc1cc(NC(=N)N)nc2c(C)cccc12 [Compound 6002, N-(4,8-dimethyl-2-quinolinyl)guanidine] | 157 nM | Inactive | > 10000 nM | Inactive | > 10000 nM | 91 nM | 883 nM | 952 nM |  |  |  |  |  |  |
| CCc1cc(NC(=N)N)nc2cc(C)ccc12 [Compound 6003, N-(4-ethyl-7-methyl-2-quinolinyl)guanidine] | 28 nM | Inactive | > 10000 nM | Inactive | > 10000 nM | 21 nM | 203 nM | 113 nM |  |  |  |  |  |  |

From US20030139431A1 (priority 2001, published 2003)
